The source of these data is paper PMC3788796, “The Antimicrobial Domains of Wheat Puroindolines Are Cell-Penetrating Peptides with Possible Intracellular Mechanisms of Action” (PLoS ONE, 2013).

Where “and” joins values, the source holds several entries; their conditions need not be identical. Equal entries are not always repeated.

The test system of one test is S. cerevisiae cells. As to the kind of experiment: Propidium iodide uptake by yeast cells. It is filed as cell-based, Saccharomyces cerevisiae. The following applies: for % fluorescent cells (propidium iodide uptake): 1 h 30°C in PBS pH 7.4, PI 6 µg/mL 5 min, no-peptide control 5.7, average of 4 fields, two independent experiments. On the procedure:
S. cerevisiae was grown overnight at 30°C in 100 mL PDB and the cells collected by centrifugation and resuspended in Phosphate Buffered Saline (PBS: 137 mM NaCl, 2.7 mM KCl, 8 mM Na2HPO4, 1.46 mM KH2PO4; pH 7.4) to ∼1.5×10^7 cells/mL (OD600 = 0.6–0.8). 75 µL of the suspension was incubated with 25 µL of stock solutions of PuroA, Pina-M, Pina-W→F, PuroB and indolicidin (to give a final peptide concentration of 64, 125, 250 or 500 µg/mL), or with PBS (for no-peptide controls) for 1 h at 30°C, followed by staining with propidium iodide (PI) as described. PI stock solution (60 µg/mL) was prepared in MilliQ water and stored in dark at −20°C. It was diluted to 12 µg/mL before use, mixed 1∶1 with peptide-treated or untreated yeast cells (to final PI concentration 6 µg/mL), and the samples incubated in the dark for 5 min. A 10 µL aliquot of these was examined using a Nikon Eclipse 50 i fluorescence microscope with 561 nm excitation and 630/22 emission filter, at 400×magnification. The photomicrographs were taken under light and fluorescence for each field. Five randomly selected fields were recorded and scored for each sample.

Test [1] in a line: Calcein dye leakage from mammalian-mimicking LUVs. Format: biochemical. The conditions noted are these: for % Calcein leakage from DOPC LUVs: LUVs 10 µM phospholipid, 10 mM Tris, 100 mM NaCl pH 7.4, 5 min, fluorescence 496/515 nm, no-peptide control 28.0, average of duplicate experiments. As for the experimental part:
A calcein leakage assay as previously described was performed to determine the effects of PIN-based peptides on the permeability of synthetic large unilamellar vesicles (LUVs), designed to mimic bacterial and mammalian cell membranes. The phospholipids used were DOPC (1,2-dioleoyl-sn-glycero-3-phosphocholine), with zwitterionic head groups and DOPG (1,2-dioleoyl-sn-glycerol-3-[phosphor-rac-(1-glycerol)]), with negatively charged headgroups (Avanti® Polar lipids, Alabaster, USA). These were used to make DOPC:DOPG (1∶3) LUVs to mimic bacterial cell membranes, or DOPC only, to mimic mammalian cell membranes. Calcein-entrapped LUVs were prepared by the extrusion method using an Avanti mini extrusion apparatus (Avanti® Polar Lipids, Alabaster, USA). The DOPC:DOPG (a 1∶3 mixture) or DOPC were dissolved in chloroform (25 mg/mL) and aliquoted into glass test tubes to give a concentration of 2.6 mM when resuspended in 2 mL buffer. Chloroform was evaporated under a stream of N2 and the lipid films were dried overnight under vacuum. The films were then resuspended in 2.0 mL of 70 mM calcein buffer (in 10 mM Tris-HCl, pH 7.4) and incubated at room temperature for 30 minutes. To increase entrapment of the dye, five repeated freeze\thaw cycles were used by placing the vial in liquid N2 and then a warm water bath (37°C). The lipid mixture was then extruded through the mini-extruder 10 times through two stacked 0.1 µm pore-size filters. Free calcein was removed by centrifugation (10, 000×g, 10 min) three times and washing with 10 mM Tris, 100 mM NaCl buffer (pH 7.4). Standards of phosphorus (inorganic P; Pi) were prepared (0.05–1.5 mg/mL) using KH2PO4 and read at 820 nm and a linear standard curve was generated (Figure S1 in File S1). The phospholipid concentration of the vesicle preparations was determined by a total phosphorus assay. The assay reagent was prepared fresh by mixing 1 part of 1% ascorbic acid with 6 parts of 0.42% ammonium molybdate•4H2O in H2SO4 and stored on ice. 7 µL of it was added to 3 µL of vesicle suspensions and incubated for 20 min at 45°C. […] The standard curve of phosphorus standards (Figure S1 in File S1) was used to determine the Pi concentration in a LUV preparation, and this was converted to phospholipid concentration (Table S1 in File S1) to adjust the preparations to the required 10 µM phospholipid concentration prior to peptide treatment.
The calcein-filled LUVs were diluted with 10 mM Tris, 100 mM NaCl buffer (pH 7.4) to a final phospholipid concentration of 10 µM. The experiments were performed in a Varian Cary Eclipse fluorescence spectrophotometer with excitation and emission wavelengths of 496 nm and 515 nm, slit widths of […] and a PMT detector of 600 V. The peptides (PuroA, Pina-M, Pina-W→F and PuroB) were added to LUVs to a final peptide concentration of 8–125 µg/mL in 100 µL volumes and the fluorescence (F) monitored for 5 min at 60 s intervals. The total calcein fluorescence (FT) was determined by addition of 1.0% Triton X100. The dye leakage was calculated as % Leakage = ((F – F0)/(FT – F0)), F0 being fluorescence of each sample at T = 0.

For test [2], the system named is plasmid DNA (pBluescript SK+). As to the kind of experiment: Gel retardation assay for in vitro DNA binding. The following applies: 100 ng plasmid DNA in 10 µL MilliQ water, 1 h room temperature, peptide 16–500 µg/mL, post-electrophoresis EtBr staining, triplicate assays. As for the experimental part: This test assesses any peptide-DNA binding by noting the retardation of the rate of migration of DNA bands through agarose gels. A number of methods were tested. As per Hsu et al., DNA of a plasmid (200 ng) or a commercial molecular weight marker (50 ng) was mixed with a peptide (to final concentrations of 32, 64, 125 or 250 µg/mL) in 15 µL of 10 mM Tris-1 mM EDTA buffer (pH 8.0), incubated at room temperature for 2 min, then electrophoresed in 0.5% or 1.0% agarose gels containing 0.5 µg/mL ethidium bromide (EtBr). Following Park et al., 100 ng plasmid DNA was mixed with a peptide (to different concentrations) in 20 µL binding buffer (5% glycerol, 10 mM Tris-HCl (pH 8.0), 1 mM EDTA, 1 mM DTT, 20 mM KCl, 50 µg/mL BSA), held for 1 h at room temperature, then electrophoresed in EtBr-containing gels. Finally the protocols were modified to eliminate any interference of EtBr in the initial peptide-DNA binding. Plasmid DNA (100 ng) was mixed with a peptide (to final concentrations of 16, 32, 64, 125, 250 or 500 µg/mL) in 10 µL of MilliQ water, held at room temperature for 1 h and electrophoresed, followed by emersion of gels in EtBr solution (0.5 µg/mL) for 30 min before imaging.

In a further test the test system is E. coli cells. The following applies: data from previous work; cited from earlier work.

Consider “FPVTFRFFKFFKG-NH2 [Pina-W→F, PuroA-based peptide with all Trps substituted with Phe residues]”, for which the “% fluorescent cells (propidium iodide uptake)” value is reported as 56.5% in the test with S. cerevisiae cells (peptide 64 µg/mL), 72.3% with S. cerevisiae cells (peptide 125 µg/mL), 100% with S. cerevisiae cells (peptide 250 µg/mL) and 100% with S. cerevisiae cells (peptide 500 µg/mL). For the same substance, the “cells permeable to propidium iodide at sub-MIC levels” value with S. cerevisiae cells (peptide below its MIC against yeast) is 56–72%. Besides, the “cells permeable to propidium iodide at MIC levels and higher” value in the test with S. cerevisiae cells (peptide equal to or greater than its MIC for yeast) is on record as 100%. The “dye leakage from the DOPC LUVs (in words)” value in test [1] (over all tested concentrations, even at high concentration) is “no significant leakage”. Moreover, the “% Calcein leakage from DOPC LUVs” value in test [1] (peptide 8 µg/mL) is 28.0%; in test [1] (peptide 16 µg/mL), 27.0%; in test [1] (peptide 32 µg/mL) it was 27.0%; in test [1] (peptide 64 µg/mL), 31.0%; in test [1] (peptide 125 µg/mL (highest for PuroA, Pina-M, Pina-W→F)), 36.0%. Further, the “Peptide concentration inducing gel retardation, Partial” value in test [2] was 32 ± 0 µg/mL. In test [2] (complete inhibition of migration), the “Peptide concentration inducing gel retardation, Full” value is 64 µg/mL and 64 ± 0 µg/mL. In addition, the “MIC against E. coli cells” value in the test with E. coli cells was 32 µg/mL and 32 ± 0 µg/mL.
